Laboratory results taken from publication PMC4554834 (Bioorganic & medicinal chemistry, 2015).

Legend:
[1] = target: T1, human OX1 receptors (Homo sapiens, UniProt O43613); experiment: Calcium mobilization Ke; assay type: cell-based; conditions: for OX1 potency (in words): qualitative statement
T1 sequence (O43613 1-425): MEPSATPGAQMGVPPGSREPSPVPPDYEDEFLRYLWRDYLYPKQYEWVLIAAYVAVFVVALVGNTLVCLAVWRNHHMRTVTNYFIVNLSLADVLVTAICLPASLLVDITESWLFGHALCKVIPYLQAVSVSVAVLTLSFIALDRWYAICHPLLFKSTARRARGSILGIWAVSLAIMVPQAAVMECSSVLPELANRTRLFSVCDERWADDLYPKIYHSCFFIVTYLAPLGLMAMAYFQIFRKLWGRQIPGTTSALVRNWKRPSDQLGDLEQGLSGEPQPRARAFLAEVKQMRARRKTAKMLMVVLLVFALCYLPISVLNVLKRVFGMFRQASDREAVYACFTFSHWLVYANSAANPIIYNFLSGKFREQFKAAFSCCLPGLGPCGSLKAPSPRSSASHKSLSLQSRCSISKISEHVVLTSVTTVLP

[2] = target: T2, human OX2 receptors (Homo sapiens, UniProt O43614); experiment: Calcium mobilization Ke; assay type: cell-based
T2 sequence (O43614 1-444): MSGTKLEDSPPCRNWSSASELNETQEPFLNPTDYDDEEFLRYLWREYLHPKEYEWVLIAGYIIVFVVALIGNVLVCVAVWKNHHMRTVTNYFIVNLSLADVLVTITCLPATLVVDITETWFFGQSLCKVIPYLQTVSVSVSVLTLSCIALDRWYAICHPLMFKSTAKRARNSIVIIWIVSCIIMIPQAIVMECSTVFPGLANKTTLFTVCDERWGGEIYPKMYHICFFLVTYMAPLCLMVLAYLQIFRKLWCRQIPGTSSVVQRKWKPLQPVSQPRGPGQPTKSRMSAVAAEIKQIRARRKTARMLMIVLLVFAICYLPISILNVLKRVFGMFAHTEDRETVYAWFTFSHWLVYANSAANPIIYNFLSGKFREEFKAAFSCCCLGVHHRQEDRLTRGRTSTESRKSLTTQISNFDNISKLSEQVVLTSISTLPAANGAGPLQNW

[3] = cited from earlier work
[4] = tested on: OX1; conditions: cited from earlier work
[5] = tested on: OX2 receptor; conditions: cited from earlier work

Kb [1] [nM] | Kb [2] [nM] | Structure (SMILES) | other results
> 10000 | > 10000 | CCCCCC(=O)Nc1ccc2c(c1)CCN(CC(=O)NCc1ccccc1)C2Cc1ccc(OC)c(OC)c1 (centres unmarked) [28b, N-{2-[(Benzylcarbamoyl)methyl]-1-[(3,4-dimethoxyphenyl)methyl]-1,2,3,4-tetrahydroisoquinolin-6-yl}hexanamide] | –
591 ± 67 | > 10000 | CCOC(=O)CCCNc1ccc2c(c1)CCN(CC(=O)NCc1ccccc1)C2Cc1ccc(OC)c(OC)c1 (centres unmarked) [26d, Ethyl 4-({2-[(benzylcarbamoyl)methyl]-1-[(3,4-dimethoxyphenyl)methyl]-1,2,3,4-tetrahydroisoquinolin-6-yl}amino)butanoate] | OX1 potency (in words) [1]: some activity
1600 ± 190 | – | COC(=O)CCCCNc1ccc2c(c1)CCN(CC(=O)NCc1ccccc1)C2Cc1ccc(OC)c(OC)c1 (centres unmarked) [26f, Methyl 5-({2-[(benzylcarbamoyl)methyl]-1-[(3,4-dimethoxyphenyl)methyl]-1,2,3,4-tetrahydroisoquinolin-6-yl}amino)pentanoate] | –
> 10000 | – | COc1ccc(CC2c3ccc(NC(C)=O)cc3CCN2CC(=O)NCc2ccccc2)cc1OC (centres unmarked) [28a, N-Benzyl-2-{1-[(3,4-dimethoxyphenyl)methyl]-6-acetamido-1,2,3,4-tetrahydroisoquinolin-2-yl}acetamide] | –
> 10000 | – | COc1ccc(CC2c3ccc(NC(=O)Nc4ccccc4)cc3CCN2CC(=O)NCc2ccccc2)cc1OC (centres unmarked) [28d, N-Benzyl-2-{1-[(3,4-dimethoxyphenyl)methyl]-6-[(phenylcarbamoyl)amino]-1,2,3,4-tetrahydroisoquinolin-2-yl}acetamide] | OX1 potency (in words) [1]: no significant potency
809 ± 200 | – | CCOC(=O)CCNc1ccc2c(c1)CCN(CC(=O)NCc1ccccc1)C2Cc1ccc(OC)c(OC)c1 (centres unmarked) [26c, Ethyl 3-({2-[(benzylcarbamoyl)methyl]-1-[(3,4-dimethoxyphenyl)methyl]-1,2,3,4-tetrahydroisoquinolin-6-yl}amino)propanoate] | OX1 potency (in words) [1]: some activity

The next lines start with the compound.

Structure (SMILES) | Kb [1] [nM] | Kb [2] [nM] | other results
CCOC(=O)Nc1ccc2c(c1)CCN(CC(=O)NCc1ccccc1)C2Cc1ccc(OC)c(OC)c1 (centres unmarked) [23b, Ethyl N-{2-[(benzylcarbamoyl)methyl]-1-[(3,4-dimethoxyphenyl)methyl]-1,2,3,4-tetrahydroisoquinolin-6-yl}carbamate] | > 10000 | > 10000 | OX1 potency (in words) [1]: not active
COc1cc2c(cc1OC)CN(C(=O)[C@@H](NCc1ccncc1)C(C)(C)C)CC2 [TCS-OX2-29] | – | – | effect on cocaine self-administration [3]: no effect; effect on cue-induced reinstatement ([3]; cocaine): no effect
CCCOc1ccc2c(c1)C(Cc1ccc(OC)c(OC)c1)N(CC(=O)NCc1ccccc1)CC2 (centres unmarked) [10c, N-Benzyl-2-{1-[(3,4-dimethoxyphenyl)methyl]-7-propoxy-1,2,3,4-tetrahydroisoquinolin-2-yl}acetamide] | 23.7 ± 7.9 | 2550 ± 260 | mode of antagonism at OX1 ([1]; 15 minute pre-incubation): competitive antagonism; selectivity for OX1 over OX2 ([1]; OX2 versus OX1 Ke): > 100 fold
COc1ccc2c(c1)C(Cc1ccc(OC)c(OC)c1)N(CC(=O)NCc1ccccc1)CC2 (centres unmarked) [10a, N-Benzyl-2-{1-[(3,4-dimethoxyphenyl)methyl]-7-methoxy-1,2,3,4-tetrahydroisoquinolin-2-yl}acetamide] | 512 ± 36 | 1680 ± 330 | –
COc1ccc(CC2c3ccc(OS(C)(=O)=O)cc3CCN2CC(=O)NCc2ccccc2)cc1OC (centres unmarked) [18a, 2-[(Benzylcarbamoyl)methyl]-1-[(3,4-dimethoxyphenyl)methyl]-1,2,3,4-tetrahydroisoquinolin-6-yl methanesulfonate] | > 10000 | 1330 ± 260 | –
COC(=O)Nc1ccc2c(c1)CCN(CC(=O)NCc1ccccc1)C2Cc1ccc(OC)c(OC)c1 (centres unmarked) [23a, Methyl N-{2-[(benzylcarbamoyl)methyl]-1-[(3,4-dimethoxyphenyl)methyl]-1,2,3,4-tetrahydroisoquinolin-6-yl}carbamate] | 2400 ± 320 | > 10000 | OX1 potency (in words) [1]: slight potency
Cc1nc2ccc(NC(=O)Nc3ccnc4cccnc34)cc2o1 [SB-334867] | – | – | selectivity for OX1 over OX2 [4]: ~ 50 fold
COc1ccc(CC2c3ccc(NCCN4CCCCC4)cc3CCN2CC(=O)NCc2ccccc2)cc1OC (centres unmarked) [25o, N-Benzyl-2-{1-[(3,4-dimethoxyphenyl)methyl]-6-{[2-(piperidin-1-yl)ethyl]amino}-1,2,3,4-tetrahydroisoquinolin-2-yl}acetamide] | > 10000 | – | OX1 potency (in words) [1]: loss of detectable potency
CCCCCNc1ccc2c(c1)CCN(CC(=O)NCc1ccccc1)C2Cc1ccc(OC)c(OC)c1 (centres unmarked) [25r, N-Benzyl-2-{1-[(3,4-dimethoxyphenyl)methyl]-6-(pentylamino)-1,2,3,4-tetrahydroisoquinolin-2-yl}acetamide] | > 10000 | – | –
COc1ccc(CC2c3cc(OC(C)C)ccc3CCN2CC(=O)NCc2ccccc2)cc1OC (centres unmarked) [10d, N-Benzyl-2-{1-[(3,4-dimethoxyphenyl)methyl]-7-(propan-2-yloxy)-1,2,3,4-tetrahydroisoquinolin-2-yl}acetamide] | 49.7 ± 11 | – | –
COc1ccc(CC2c3ccc(OS(=O)(=O)c4ccccc4)cc3CCN2CC(=O)NCc2ccccc2)cc1OC (centres unmarked) [18b, 2-[(Benzylcarbamoyl)methyl]-1-[(3,4-dimethoxyphenyl)methyl]-1,2,3,4-tetrahydroisoquinolin-6-yl benzenesulfonate] | > 10000 | – | –
COc1ccc(CC2c3ccc(N(C)Cc4ccccc4)cc3CCN2CC(=O)NCc2ccccc2)cc1OC (centres unmarked) [25i, N-Benzyl-2-{6-[benzyl(methyl)amino]-1-[(3,4-dimethoxyphenyl)methyl]-1,2,3,4-tetrahydroisoquinolin-2-yl}acetamide] | > 10000 | – | –
COc1ccc(CC2c3ccc(NCCCc4ccccc4)cc3CCN2CC(=O)NCc2ccccc2)cc1OC (centres unmarked) [25k, N-Benzyl-2-{1-[(3,4-dimethoxyphenyl)methyl]-6-[(3-phenylpropyl)amino]-1,2,3,4-tetrahydroisoquinolin-2-yl}acetamide] | 1180 ± 80 | – | –
CNC(=O)[C@@H](c1ccccc1)N1CCc2cc(OC)c(OC)cc2[C@@H]1CCc1ccc(C(F)(F)F)cc1 [Almorexant, almorexant] | – | – | mode of antagonism at the OX2 receptor [5]: insurmountable antagonist
COc1ccc(CC2c3ccc(NCCCCOc4ccccc4)cc3CCN2CC(=O)NCc2ccccc2)cc1OC (centres unmarked) [25l, N-Benzyl-2-{1-[(3,4-dimethoxyphenyl)methyl]-6-[(4-phenoxybutyl)amino]-1,2,3,4-tetrahydroisoquinolin-2-yl}acetamide] | 2080 ± 20 | – | –
CCOc1ccc2c(c1)C(Cc1ccc(OC)c(OC)c1)N(CC(=O)NCc1ccccc1)CC2 (centres unmarked) [10b, N-Benzyl-2-{1-[(3,4-dimethoxyphenyl)methyl]-7-ethoxy-1,2,3,4-tetrahydroisoquinolin-2-yl}acetamide] | 37.3 ± 7.8 | – | –
CCC(=O)Oc1ccc2c(c1)CCN(CC(=O)NCc1ccccc1)C2Cc1ccc(OC)c(OC)c1 (centres unmarked) [compound 19, 2-[(Benzylcarbamoyl)methyl]-1-[(3,4-dimethoxyphenyl)methyl]-1,2,3,4-tetrahydroisoquinolin-6-yl propanoate] | > 10000 | 1290 ± 130 | –
COc1ccc(CC2c3ccc(NCc4cccnc4)cc3CCN2CC(=O)NCc2ccccc2)cc1OC (centres unmarked) [25n, N-Benzyl-2-{1-[(3,4-dimethoxyphenyl)methyl]-6-[(pyridin-3-ylmethyl)amino]-1,2,3,4-tetrahydroisoquinolin-2-yl}acetamide] | 1270 ± 110 | – | –
